The text below walks through data of US10226509B2, “Lymphangiogenesis inhibitors for cancer and for graft survival” (TUFTS UNIVERSITY, priority 2014, dated 2019).

The target in one assay is T1, PDPN (Homo sapiens, UniProt Q86YL7).
T1 construct: Within the whole cell lysate, an anti-PDPN-reactive 43-kDa component was detected; host or cells: primary lymphatic endothelial cells (LECs)
T1 sequence (Q86YL7 23-162): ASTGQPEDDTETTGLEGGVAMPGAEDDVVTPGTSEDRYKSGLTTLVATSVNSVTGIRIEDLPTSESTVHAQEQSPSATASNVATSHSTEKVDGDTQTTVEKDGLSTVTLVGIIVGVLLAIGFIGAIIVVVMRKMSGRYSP
The assay is described as follows: Affinity precipitation assay, PDPN. To be noted: for inhibition of binding of PDPN to Gal-8: 0.1 M sugar; for binding of PDPN (in words): galectin-conjugated agarose beads, LEC lysates. The assay is classed as binding. The protocol:
(§1) Five mg of plant lectins (Vector Labs) and galectins were conjugated to 330 mg of Pierce® NHS-activated agarose dry resin in accordance with the manufacturer's instructions (Thermo Scientific). Primary LECs (Lonza) were lysed in Triton lysis buffer (20 mM Tris-HCl, pH 7.4; 150 mM NaCl; 0.5% Triton X-100 with protease inhibitor cocktail). LEC lysates (250 μg in 500 μL lysis buffer supplemented with 10 mM MgCl2) were incubated with 40 μL (50% slurry) of agarose-conjugated lectins (4° C., overnight). Beads were pelleted by centrifugation at 3000 rpm for 1 min. Non-specific binding proteins were removed by washing the beads with Triton lysis buffer once and PBS twice. Supernatants were discarded; bound proteins were eluted by boiling the beads with 20 μL of 2× Laemmli sample buffer for 7 min, and examined by western blotting.
To determine whether PDPN binds to Gal-8 in a carbohydrate-dependent manner, LEC lysates were incubated with Gal-8-conjugated to agarose beads in the presence or absence of 0.1 M of lactose (an inhibiting sugar) or sucrose (a non-inhibiting sugar). Bound proteins were examined with total cell lysates (input) by western blot using an anti-PDPN antibody. To determine specificity of PDPN binding to Gal-8, LEC lysates were also incubated with agarose beads conjugated to Gal-1, Gal-3 and Gal-7. Within the whole cell lysate, an anti-PDPN-reactive 43-kDa component was detected (FIG. 7A).

Another assay concerns VEGFR-3. The assay is described as follows: Affinity precipitation assay, VEGFR-3. Type of assay: binding, human. To be noted: 0.1 M sugar. How it is done:
as §1
Next, a series of examples were performed to determine whether VEGF-C-induced lymphangiogenesis is dependent on Gal-8. To determine whether VEGFR-3 is a Gal-8-binding protein, LEC lysates were incubated with Gal-8-conjugated agarose beads in the presence or absence of 0.1 M of lactose (an inhibiting sugar) or sucrose (a non-inhibiting sugar). Bound proteins were examined and were compared to total cell lysates (input) by western blot using anti-VEGFR-3 antibody. Three forms of VEGFR-3 (125 kDa, 175 kDa and 195 kDa) were detected in total cell lysates (FIG. 5A) (Bando, H., et al. 2004. Int J Cancer 111:184-191.). […] Having shown that Gal-8 binds to VEGFR-3 in LECs and that the carbohydrate-binding activity of Gal-8 is required for the synergistic effect of Gal-8 on VEGF-C-induced LEC sprouting, it was of interest to determine whether VEGFR-3 bears 3′-sialylated glycans.

Assay [1] relates to VEGF-C-induced LEC sprouting. The assay is described as follows: LEC sprouting assay: VEGF-C-induced sprouting. The assay is classed as cell-based, human. As to conditions: VEGF-C 50 ng/ml, 24 h. How it is done:
(§2) LEC spheroids were generated by seeding primary LECs at passage 4 or 5 in each well of 384-well hanging-drop plates (3D Biomatrix) in complete EGM-2 MV medium containing 0.25% methyl cellulose according to the manufacturer's instructions (750 cells/well). After 18 hours, LEC spheroids were collected, resuspended in serum-free EBM-2 basal medium, and mixed with collagen solution (PureCol collagen, Advanced BioMatrix, 2.2 mg/ml in M199 medium, pH adjusted to 7.4 with NaHCO3 and NaOH). Aliquots of the LEC spheroid/collagen mixture (250 μl/well of 48-well plate) were incubated in the presence or absence of various test agents for 24 hr. At the end of the incubation period, spheroids were stained with Calcein AM (Invitrogen, 1 μg/mL, 37° C., and 30 min). Fluorescent images were acquired using the EVOS FL cell imaging system, pixels were inverted for better visualization and cumulative length of each sprout was calculated. Results were expressed as fold change compared to corresponding controls. It was observed that sprout lengths vary from passages to passages. Test agents used included thiodigalactoside (10 to 50 mM, Carbosynth), 3′-sialyl lactose (2 to 10 mM, Carbosynth), 6′-sialyl lactose (2 to 10 mM, Carbosynth), LY294002 (20 μM, Abeam), U0126 (20 μM, Abeam), PD0325901 (1 μM, Selleckchem), human VEGFR-3-Fc chimera (10 μg/ml, R&D), human VEGFR-2-Fc chimera (10 μg/ml, R&D), Avastin (10 μg/ml, bevacizumab, Genentech/Roche), human control IgG (10 μg/ml, Southern Biotech), anti-human podoplanin functional grade antibody (10 μg/ml, eBioscience), and rat IgG2a κ isotype control functional grade antibody (10 μg/ml, eBioscience).
In this assay, the LEC spheroids were treated with VEGF-C (50 ng/ml) in the presence or absence of 0.75 μM of Gal-8 for 24 hours, and then accumulated sprout lengths were quantified. […] Synergistic effect of Gal-8 on VEGF-C-induced LEC sprouting was dose-dependent. […] At concentrations >0.5 μM Gal-8, there was no further increase in the degree of VEGF-C-induced lymphangiogenesis (FIG. 4C).
To further characterize the role of carbohydrate-mediated recognition in VEGF-C-induced lymphangiogenesis, LEC spheroids were stimulated with VEGF-C (50 ng/ml) in the presence or absence of three different galectin inhibitors. […] Therefore, the data establishes the critical role of Gal-8-mediated carbohydrate-mediated recognition in VEGF-C-induced lymphangiogenesis.

In the next assay the test system is LEC spheroids. In words: LEC sprouting assay: stimulation by galectins alone. To be noted: 24 hours. The assay is classed as cell-based, human. How it is done:
as §2
To assess the effect of galectins on LEC sprouting, LEC spheroids were embedded in a collagen matrix and incubated with media containing various test agents. After 24 hours, the cumulative length of the sprouts for each spheroid was quantified by ImageJ. […] Multiple approaches were used to determine whether the stimulatory effect of Gal-8 on LEC sprouting was carbohydrate-dependent.

In the case of `OC[C@H]1O[C@@H](O[C@H]2[C@H](O)[C@@H](O)C(O)O[C@@H]2CO)[C@H](O)[C@@H](O)[C@H]1O` (stereo partly shown) [lactose, reference compound], on PDPN, the “inhibition of binding of PDPN to Gal-8” value is given as “inhibited”. Moreover, the “inhibition of binding of VEGFR-3 to Gal-8” value in the assay with VEGFR-3 is recorded as “inhibited”.
`OC[C@H]1O[C@@](CO)(O[C@H]2O[C@H](CO)[C@@H](O)[C@H](O)[C@H]2O)[C@@H](O)[C@@H]1O` [sucrose, reference compound]: the “inhibition of binding of PDPN to Gal-8” value on PDPN was “not by sucrose”. For the same molecule, the “inhibition of binding of VEGFR-3 to Gal-8” value with VEGFR-3 is on record as “not sucrose, a noncompeting sugar”.
Take Gal-7: recombinant galectin-7: in assay [1], the “effect on VEGF-C-induced LEC sprouting (in words)” value (shortened to “effect”) is listed as “did not potentiate”. The “promotion of LEC sprouting by the agent alone (in words)” value (from here on “promotion of LEC sprouting”) in the assay on LEC spheroids is “not Gal-1, Gal-3 or Gal-7, promotes LEC sprouting”. The “binding of PDPN (in words)” value in the assay with PDPN is “does not bind”.
Gal-1: recombinant galectin-1: the “effect” value in assay [1] is “did not potentiate”. Also, the “promotion of LEC sprouting” value with LEC spheroids is “not Gal-1, Gal-3 or Gal-7, promotes LEC sprouting”. Further, the “binding of PDPN (in words)” value with PDPN is “does not bind”.
Regarding Gal-3: recombinant galectin-3, in assay [1], the “effect” value was “did not potentiate”. In addition, the “promotion of LEC sprouting” value in the assay with LEC spheroids is “not Gal-1, Gal-3 or Gal-7, promotes LEC sprouting”. The “binding of PDPN (in words)” value with PDPN is given as “does not bind”.
